In patent US9040091B2 (priority 2012, dated 2015):

How the values were obtained:
[1] = Solubility of DTPA in neutral pH buffer, with and without zinc acetate; type: physicochemical
Method: As used herein, the terms “poorly absorbed drug,” “drug having low solubility,” and the like refer to a drug (in its neutral (i.e., uncharged) state) having a water solubility in neutral pH buffer of less than about 20 mg/ml. […] Thus, as used herein, DTPA (including DTPA and its salts, hydrates, solvates, complexes, etc.) is a poorly absorbed drug. […] In some embodiments, the present disclosure provides a pharmaceutical composition comprising a composition with improved aqueous solubility comprising a DTPA and zinc acetate composition of the present disclosure.

[2] = Americium-241 decorporation in rats (tissue levels and excretion); type: in vivo; settings: NanoDTPA capsules PO 60 mg/kg DTPA; for liver total Am-241 activity: rat liver, Zn-DTPA IV 15 mg/kg DTPA, per 200 ul homogenized tissue
Method: The decorporation and excretion properties in rodents of oral NanoDTPA capsules at 60 mg/kg DTPA according to the present disclosure was compared to IV Zn-DTPA solution at 15 mg/kg DTPA, which is the currently licensed product available to the public. The studies were designed to provide data that systemic Am-241 at a single low dose followed by oral NanoDTPA capsules can provide a sufficient radiation dose reduction as an efficacy endpoint. All DTPA dosing was initiated 24 hours post-exposure to isotope (Am-241) in this set of studies to simulate a realistic emergency response time following exposure. Two sets of measurements were made: (1) internal tissue levels at 2, 4, and 7 days vs. (2) daily excreted concentrations in urine and feces.
There was a general trend of tissue reduction in all groups over the 3, 5, and 8 day observation period. All data are expressed as total Am-241 activity in nCi per 200 ul blood, homogenized tissue, or output (urine and feces).

[3] = Single dose pharmacokinetic testing, DTPA in blood of male beagle dogs; type: in vivo; settings: 72 hours post-dose
Method: The objective of this study was to evaluate the concentration of DTPA in blood following a single administration with either Zn-DTPA injectable solution or NanoDTPA capsules using male beagle dogs. Single dose pharmacokinetic (PK) testing groups of Zn-DTPA solution vs. NanoDTPA capsules included nine study groups used for the PK testing. Zn-DTPA solution was delivered intravenously (IV) and by mouth (per os, PO) and NanoDTPA capsules were administered PO. […] Three formulations of NanoDTPA capsules were tested to examine different formulations of NanoDTPA powder and different capsule sizes. The dose for each NanoDTPA capsule formulation was either two or six capsules and the calculated DTPA doses confirmed based on the amount of DTPA in the capsules and body weight.

[4] = Americium-241 decorporation in dogs (urine, feces, tissue Am-241); type: in vivo, beagle dogs; settings: daily dosing days 1-14, Zn-DTPA IV 15 mg/kg, NanoDTPA 1, 2 or 6 capsules/day or 2 capsules twice/day
Excerpt: The objective of this study was to evaluate the dose-related efficacy of daily doses of NanoDTPA capsules in male and female beagle dogs intravenously (IV) administered a soluble citrate complex of americium-241 (Am-241). Twenty-four (24) male and female beagle dogs underwent a 14-day quarantine period for acclimation. Once released from quarantine, animals were weighed and randomized into study animals or spares. The average body weight of study animals was 8.6±0.9 kg (males 9.0±1.0 kg; females 8.2±0.7 kg). After randomization, animals were acclimated to metabolism cages for 24 hours prior to radionuclide administration. Animals received a single IV administration of 241Am(III)-citrate on Day 0. One day after radionuclide administration, one of four different doses of NanoDTPA capsules [1, 2, or 6-capsules/day or 2 capsules twice/day], IV Zn-DTPA [15 mg/kg] as a positive control, or IV saline as a placebo were administered. NanoDTPA capsules, IV Zn-DTPA, or IV saline was administered on study days 1-14. Urine and feces were collected daily. Animals were euthanized on day 21 and tissues collected. Urine, fecal, and tissue samples were analyzed for Am-241 content.

Row | Structure (SMILES) | increase of the solubility of DTPA ([1]; about 10 mg/ml zinc acetate) | solubility of DTPA with zinc acetate ([1]; about 10 mg/ml zinc acetate) | increase of the solubility of DTPA ([1]; about 20 mg/ml zinc acetate) | solubility of DTPA with zinc acetate ([1]; about 20 mg/ml zinc acetate) | solubility in neutral pH buffer ([1]; neutral pH buffer, no additive) [mg/ml] | liver total Am-241 activity ([2]; after 2 doses, dosing from 24 h post-exposure) | liver total Am-241 activity ([2]; after 4 doses) | liver total Am-241 activity ([2]; after 7 doses) | tissue Am-241 concentrations compared to control animals receiving no DTPA treatment ([2]; rats, Zn-DTPA IV 15 mg/kg) | percent bioavailability ([3]; PO 6 mg DTPA/kg) [%] | percent bioavailability ([3]; PO 60 mg DTPA/kg) [%] | Am-241 activity excreted in the urine compared to the saline placebo [4]
1 | O=C(O)CN(CCN(CC(=O)O)CC(=O)O)CCN(CC(=O)O)CC(=O)O [DTPA, diethylenetriaminepentaacetate] | about 35% | about 23.3 mg/ml | about 83% | about 31.5 mg/ml | < 17.2 | – | – | – | – | – | – | –
2 | O=C([O-])CN(CCN(CC(=O)[O-])CC(=O)[O-])CCN(CC(=O)[O-])CC(=O)[O-].[Na+].[Na+].[Na+].[Zn+2] [Zn-DTPA] | – | – | – | – | – | 116.37+/−26.90 nCi | 81.70+/−11.53 nCi | 55.42+/−19.68 nCi | significantly lower | 12.26 | 12.67 | approximately 9.4 times
